The subject of this assay is platelet aggregation. Briefly: In-Vitro Platelet Aggregation in PRP (ADP-induced). The class given is cell-based. The conditions noted are these: Canis lupus familiaris; dog platelet-rich plasma; ADP 50 μM final; 1 min preincubation at 37° C.; read-out: IC50 (dosage at which 50% of platelet aggregation is inhibited). As for the experimental part: Healthy male or female dogs were fasted for 8 hours prior to drawing blood; then 30 mL whole blood was collected using a butterfly needle and 30 mL plastic syringe with 3 mL of 0.129M buffered sodium citrate (3.8%). The syringe was rotated carefully as blood was drawn to mix the citrate. Platelet-rich plasma (PRP) was prepared by centrifugation at 975×g for 3.17 minutes at room temperature allowing the centrifuge to coast to a stop without braking. The PRP was removed from the blood with a plastic pipette and placed in a plastic-capped 50 mL Corning conical sterile centrifuge tube which was held at room temperature. Platelet-poor plasma (PPP) was prepared by centrifuging the remaining blood at 2000×g for 15 minutes at room temperature allowing the centrifuge to coast to a stop without braking. The PRP was adjusted with PPP to a count of 2-3×10^8 platelets/mL. The PRP preparation (400 μL) and 50 μL of the compound solution to be tested or saline were preincubated for 1 minute at 37° C. in a BioData aggregometer (BioData, Horsham, Pa.). Adenosine-5'-diphosphate (ADP, 50 μL, 50 μM final concentration) was added to the cuvettes and the aggregation was monitored for 1 minute. All compounds are tested in duplicate. Results are calculated as follows: Percent of control=[(maximal OD minus initial OD of compound) divided by (maximal OD minus initial OD of control saline)]×100. The percent inhibition equals 100-(percent of control).
The compounds tested and their median inhibitory concentrations (IC50) are recorded in Table 1. The IC50 (dosage at which 50% of platelet aggregation is inhibited) were calculated by linear regression of the dose response curve.

Take `N=C(N)c1cnc(CCCCC(=O)NC(CC(=O)O)c2ccccc2)nc1` (stereo not drawn) [Ex. 3, β-[[5-[5-(aminoiminomethyl)-2-pyrimidinyl]-1-oxopentyl]amino]-phenylpropanoic acid]: the IC50 – broadly, the point on the concentration scale where inhibition reaches its midpoint – is 2200 nM.
Regarding `N=C(N)c1cnc(CCCCC(=O)N[C@@H](CC(=O)O)C(=O)N[C@@H](Cc2ccccc2)C(=O)O)nc1` [Ex. 2], the IC50 amounted to 110 nM.
Take `N=C(N)c1cnc(CCCCC(=O)NC(CC(=O)O)c2cccnc2)nc1` (stereo not drawn) [Ex. 6, β-[[5-[5-(aminoiminomethyl)-2-pyrimidinyl]-1-oxopentyl]amino]-3-pyridinepropanoic acid]: the IC50 was determined as 530 nM.
For the molecule `N=C(N)c1cnc(CCCCC(=O)N[C@@H](CC(=O)O)C(=O)N[C@@H](Cc2ccccc2)C(N)=O)nc1` (relative stereo) [Ex. 1, [S,(R*,R*)]-3-[[5-[5-(aminoiminomethyl)-2-pyrimidinyl]-1-oxopentyl]amino]-4-[[2-amino-2-oxo-1-(phenylmethyl)ethyl]amino]-4-oxobutanoic acid], the IC50 is 590 nM.
Regarding `N=C(N)c1cnc(CCCCC(=O)NCCC(=O)O)nc1` [Ex. 4, N-[5-[5-(aminoiminomethyl)-2-pyrimidinyl]-1-oxopentyl]-β-alanine], the 50% inhibitory concentration (IC50) amounted to 50000 nM.

Source of the values: patent US5872122A, “Pyrimidinylamidino β-amino acid derivatives useful as inhibitors of platelet aggregation” (Monsanto Company, priority 1997, dated 1999).
